Where “and” joins values, the source holds several entries; their conditions need not be identical. Equal values may be shown once.
Columns and labels:
[1] = 101 kPa, Liquid
[2] = refractive index (Na D-line) (dimensionless); details: 298.15 K; 101.33 kPa; Liquid; Standard Abbe refractometry
[3] = xn = mol fraction of the nth substance listed; details: 101 kPa, Liquid

CCCCCCCC [octane]
[1]
Details	mass density
298.15 K	698.62 kg/m3 [middle of 4 runs]
308.15 K	690.44 kg/m3 and 690.43 kg/m3 and 690.45 kg/m3
318.15 K	682.47 kg/m3 and 682.49 kg/m3
328.15 K	674.55 kg/m3 and 674.56 kg/m3 and 674.54 kg/m3

Details	refractive index
[2]	1.395

CCCCCCCC [octane] + Cc1cc(C)cc(C)c1
[3], x1 = 1
Details	mass density [kg/m3]
298.15 K	698.62
308.15 K	690.45
318.15 K	682.49
328.15 K	674.54

CCCCCCCC [octane] + Cc1cccc(C)c1
[3], x1 = 1
Details	mass density [kg/m3]
298.15 K	698.63
308.15 K	690.43
318.15 K	682.49
328.15 K	674.56

CCCCCCCC [octane] + Cc1ccccc1
mass density [kg/m3], [3]
Details	298.15 K	308.15 K	318.15 K	328.15 K
x1 = 0.0654	845.89	836.6	–	–
x1 = 0.0675	–	–	826.95	817.77
x1 = 0.1229	–	–	814.22	805.12
x1 = 0.1283	831.23	822.06	–	–
x1 = 0.1979	816.17	807.1	–	–
x1 = 0.2052	–	–	796.69	787.73
x1 = 0.2524	805.13	796.14	–	–
x1 = 0.2613	–	–	785.56	776.68
x1 = 0.312	793.74	784.82	–	–
x1 = 0.3142	–	–	775.67	766.87
x1 = 0.3931	779.27	770.46	–	–
x1 = 0.398	–	–	761	752.32
x1 = 0.4544	769.05	760.31	–	–
x1 = 0.4553	–	–	751.61	743.01
x1 = 0.5388	–	–	738.82	730.32
x1 = 0.5409	755.59	746.93	–	–
x1 = 0.6029	746.56	737.98	–	–
x1 = 0.6078	–	–	728.94	720.55
x1 = 0.6679	–	–	720.81	712.48
x1 = 0.6717	737.09	728.58	–	–
x1 = 0.7202	730.75	722.3	–	–
x1 = 0.7262	–	–	713.32	705.06
x1 = 0.7985	–	–	704.51	696.33
x1 = 0.8064	720.08	711.7	–	–
x1 = 0.863	–	–	697.07	688.97
x1 = 0.8727	712.36	704.05	–	–
x1 = 0.9143	–	–	691.43	683.39
x1 = 0.9312	705.88	697.62	–	–
x1 = 1	698.61	690.44	682.49	674.55

CCCCCCCC [octane] + c1ccccc1
[3]
Details	mass density [kg/m3]
298.15 K, x1 = 0.06831	850.82
298.15 K, x1 = 0.1358	831.14
298.15 K, x1 = 0.2041	813.51
298.15 K, x1 = 0.2616	800.23
298.15 K, x1 = 0.3322	785.49
298.15 K, x1 = 0.3912	774.33
298.15 K, x1 = 0.4581	762.82
298.15 K, x1 = 0.5388	750.32
298.15 K, x1 = 0.6054	740.95
298.15 K, x1 = 0.664	733.37
298.15 K, x1 = 0.7116	727.59
298.15 K, x1 = 0.7979	717.91
298.15 K, x1 = 0.8682	710.7
298.15 K, x1 = 0.9264	705.15
298.15 K, x1 = 1	698.6
308.15 K, x1 = 0.06734	840.85
308.15 K, x1 = 0.1335	821.8
308.15 K, x1 = 0.1989	804.98
308.15 K, x1 = 0.2562	791.81
308.15 K, x1 = 0.3283	776.91
308.15 K, x1 = 0.3888	765.56
308.15 K, x1 = 0.4682	752.18
308.15 K, x1 = 0.5284	742.95
308.15 K, x1 = 0.5971	733.35
308.15 K, x1 = 0.6592	725.32
308.15 K, x1 = 0.7248	717.54
308.15 K, x1 = 0.8156	707.74
308.15 K, x1 = 0.8852	700.86
308.15 K, x1 = 0.9515	694.77
308.15 K, x1 = 1	690.44
318.15 K, x1 = 0.06734	830.41
318.15 K, x1 = 0.1335	811.7
318.15 K, x1 = 0.1932	796.52
318.15 K, x1 = 0.2511	783.28
318.15 K, x1 = 0.3289	767.43
318.15 K, x1 = 0.3937	755.54
318.15 K, x1 = 0.4681	743.19
318.15 K, x1 = 0.5302	733.8
318.15 K, x1 = 0.5866	726.02
318.15 K, x1 = 0.6709	715.36
318.15 K, x1 = 0.7248	709.07
318.15 K, x1 = 0.8156	699.39
318.15 K, x1 = 0.8852	692.61
318.15 K, x1 = 0.9515	686.61
318.15 K, x1 = 1	682.47
328.15 K, x1 = 0.06734	820.09
328.15 K, x1 = 0.1335	801.67
328.15 K, x1 = 0.1932	786.83
328.15 K, x1 = 0.2511	773.79
328.15 K, x1 = 0.3289	758.15
328.15 K, x1 = 0.3937	746.47
328.15 K, x1 = 0.4681	734.35
328.15 K, x1 = 0.5302	725.13
328.15 K, x1 = 0.5866	717.46
328.15 K, x1 = 0.6709	706.93
328.15 K, x1 = 0.7248	700.75
328.15 K, x1 = 0.8156	691.2
328.15 K, x1 = 0.8852	684.52
328.15 K, x1 = 0.9515	678.62
328.15 K, x1 = 1	674.54

Cc1ccccc1 [toluene]
[1]
Details	mass density [kg/m3]
298.15 K	862.29
308.15 K	852.86
318.15 K	843.6
328.15 K	834.29

Details	refractive index
[2]	1.4941

Cc1ccccc1 [toluene] + CCCCCCCC
[3], x2 = 0
Details	mass density [kg/m3]
298.15 K	862.29
308.15 K	852.86
318.15 K	843.6
328.15 K	834.29

— the NIST ThermoML archive (doi:10.1016/j.jct.2007.10.010)
